Assay: Particle size distribution of mirdametinib drug substance lots (laser diffraction)
Type: physicochemical
Settings: mirdametinib free base
Description: As used herein, “D50” or “d50”, also known as the median diameter, corresponds to the value under which 50% of the particles has a lower volume diameter. “D90” or “d90” corresponds to the value under which 90% of the particles has a lower volume diameter. The particle size may be measured using wet standard laser diffraction particle sizing techniques known in the art. One example of an instrument to measure the particle size of the dry powders is the Mastersizer 3000, manufactured by Malvern Panalytical Ltd. (Malvern, UK). As particles are often non-spherical, it is difficult and complex to provide dimensional descriptions of these non-spherical particles. As used herein, “volume diameter” refers to diameter of a sphere with equal volume of the non-spherical particle.
Mirdametinib free base (Lots #1, 2, and 3) having the properties in the table below were prepared.

Compound | D10
O=C(NOC[C@H](O)CO)c1ccc(F)c(F)c1Nc1ccc(I)cc1F [Lot 1, N-((R)-2,3-dihydroxypropoxy)-3,4-difluoro-2-(2-fluoro-4-iodo-phenylamino)benzamide] | 4.9 μm
O=C(NOC[C@H](O)CO)c1ccc(F)c(F)c1Nc1ccc(I)cc1F [Lot 2, N-((R)-2,3-dihydroxypropoxy)-3,4-difluoro-2-(2-fluoro-4-iodo-phenylamino)benzamide] | 7.6 μm
